Holding throughout (type): functional, cell-based
Experiment [1] concerns 4T1. The experiment in a line: Antiproliferative activity against mouse 4T1 cells assessed as reduction in cell viability after 72 hrs by MTT assay. The note with it: 4T1, 72 h. In general terms: Formazan colour is commonly taken as a measure of viable cells.
For another experiment, the system named is MCF7. In words: Antiproliferative activity against human MCF7 cells assessed as reduction in cell viability after 72 hrs by MTT assay. The note with it: MCF7, 72 h.
The next experiment deals with MIA PaCa-2. In words: Antiproliferative activity against human MIAPaCa2 cells assessed as reduction in cell viability after 72 hrs by MTT assay. The following applies: MIA PaCa-2, 72 h.
The test system of experiment [2] is WiDr. The experiment in a line: Antiproliferative activity against human WiDr cells assessed as reduction in cell viability after 72 hrs by MTT assay.
In experiment [3] the test system is 4T1. In words: Induction of mitochondrial stress in mouse 4T1 cells assessed as acute change in oxygen consumption rate by measuring reduction in ATP production at 100 uM in presence of oligomycin/FCCP/antimycin/rotenone by seahorse XFe96 analyser based assay.
In experiment [4] the test system is 4T1. In words: Induction of mitochondrial membrane damage in mouse 4T1 cells assessed as increase in proton leak at 50 to 100 uM in presence of oligomycin/FCCP/antimycin/rotenone by seahorse XFe96 analyser based assay.
In experiment [5] the test system is WiDr. In words: Induction of mitochondrial stress in human WiDr cells assessed as acute change in oxygen consumption rate by measuring reduction in ATP production at 50 to 100 uM in presence of oligomycin/FCCP/antimycin/rotenone by seahorse XFe96 analyser based assay.
The test system of experiment [6] is WiDr. In words: Induction of mitochondrial membrane damage in human WiDr cells assessed as increase in proton leak at 50 to 100 uM in presence of oligomycin/FCCP/antimycin/rotenone by seahorse XFe96 analyser based assay.
The test system of experiment [7] is WiDr. The experiment in a line: Induction of mitochondrial stress in human WiDr cells assessed as reduction in maximal respiration at 50 to 100 uM in presence of oligomycin/FCCP/antimycin/rotenone by seahorse XFe96 analyser based assay.
Experiment [8] concerns 4T1. The experiment in a line: Induction of mitochondrial stress in mouse 4T1 cells assessed as reduction in maximal respiration at 100 uM in presence of oligomycin/FCCP/antimycin/rotenone by seahorse XFe96 analyser based assay.
The test system of experiment [9] is WiDr. In words: Induction of mitochondrial stress in human WiDr cells assessed as effect on spare respiratory capacity at 50 to 100 uM in presence of oligomycin/FCCP/antimycin/rotenone by seahorse XFe96 analyser based assay.
Experiment [10] relates to 4T1. In words: Induction of mitochondrial stress in mouse 4T1 cells assessed as effect on spare respiratory capacity at 50 to 100 uM in presence of oligomycin/FCCP/antimycin/rotenone by seahorse XFe96 analyser based assay.
In experiment [11] the test system is WiDr. The experiment in a line: Induction of glycolytic stress in human WiDr cells assessed as increase in glycolysis at 50 to 100 uM in presence of glucose/oligomycin and 2-deoxyglucose by seahorse XFe96 analyser based assay.
In experiment [12] the test system is 4T1. In words: Induction of glycolytic stress in mouse 4T1 cells assessed as increase in glycolysis at 50 to 100 uM in presence of glucose/oligomycin and 2-deoxyglucose by seahorse XFe96 analyser based assay.
The test system of experiment [13] is WiDr. In words: Induction of glycolytic stress in human WiDr cells assessed as reduction in glycolytic capacity at 100 uM in presence of glucose/oligomycin and 2-deoxyglucose by seahorse XFe96 analyser based assay.
Experiment [14] relates to 4T1. In words: Induction of glycolytic stress in mouse 4T1 cells assessed as reduction in glycolytic capacity at 50 to 100 uM in presence of glucose/oligomycin and 2-deoxyglucose by seahorse XFe96 analyser based assay.
The test system of experiment [15] is WiDr. In words: Induction of glycolytic stress in human WiDr cells assessed as reduction in glycolytic reverse at 50 to 100 uM in presence of glucose/oligomycin and 2-deoxyglucose by seahorse XFe96 analyser based assay.
Experiment [16] has as its system 4T1. In words: Induction of glycolytic stress in mouse 4T1 cells assessed as reduction in glycolytic reverse at 50 to 100 uM in presence of glucose/oligomycin and 2-deoxyglucose by seahorse XFe96 analyser based assay.
Experiment [17] has as its system WiDr. The experiment in a line: Induction of mitochondrial morphological changes in human WiDr cells assessed as fragmentation of mitochondrial networks at 100 uM after 24 hrs by mitotracker Red-CMXROS dye based epifluorescent microscopic analysis.
Experiment [18] deals with 4T1. In words: Induction of mitochondrial morphological changes in mouse 4T1 cells assessed as fragmentation of mitochondrial networks at 100 uM after 24 hrs by mitotracker Red-CMXROS dye based epifluorescent microscopic analysis.

The source made the active and inactive calls. The rule behind the calls is not given here.

One may read the IC50 as the point on the concentration scale where inhibition reaches its midpoint. In the case of `COc1ccc([P+](CCC(=O)Nc2ccc3c(c2)B(O)OC3)(c2ccc(OC)cc2)c2ccc(OC)cc2)cc1`, the IC50 in the experiment with 4T1 [1], with MCF7, in the experiment with MIA PaCa-2 and with WiDr [2] was > 100 µM each time.

Take `O=C(CC[P+](c1ccccc1)(c1ccccc1)C1CCCCC1)Nc1ccc2c(c1)B(O)OC2`: the IC50 in the experiment with 4T1 [1], in the experiment on MCF7, with MIA PaCa-2 and in the experiment on WiDr [2] was > 100 µM each time.

As to `Cc1ccc([P+](CCC(=O)Nc2ccc3c(c2)B(O)OC3)(c2ccc(C)cc2)c2ccc(C)cc2)cc1`, the outcome in the experiment with 4T1 [3], in the experiment with 4T1 [4], in the experiment on WiDr [5], in the experiment on WiDr [6], in the experiment with WiDr [7] and in the experiment with WiDr [11] was Active. Further, the outcome in the experiment with 4T1 [12], in the experiment with WiDr [13], in the experiment on WiDr [15], in the experiment with 4T1 [16], in the experiment on WiDr [17] and with 4T1 [18] was Active. Further, the IC50 is 50 µM in the experiment with 4T1 [1], 46 µM in the experiment on MCF7, 44 µM with MIA PaCa-2 and 24 µM in the experiment on WiDr [2]. The outcome with 4T1 [8], with WiDr [9], with 4T1 [10] and in the experiment with 4T1 [14] was inactive.

In the case of `O=C(CC[P+](c1ccccc1)(c1ccccc1)c1ccccc1)Nc1ccc2c(c1)B(O)OC2`, the IC50 in the experiment with 4T1 [1], in the experiment with MCF7, in the experiment on MIA PaCa-2 and in the experiment with WiDr [2] was > 100 µM each time. In addition, the result in the experiment with WiDr [17] and in the experiment on 4T1 [18] was inactive.

In the case of `O=C(CCBr)Nc1ccc2c(c1)B(O)OC2`, the half-inhibitory concentration (IC50) in the experiment with 4T1 [1], in the experiment with MCF7, with MIA PaCa-2 and in the experiment with WiDr [2] was > 100 µM each time.

Regarding `O=C(CC[P+](c1ccc(F)cc1)(c1ccc(F)cc1)c1ccc(F)cc1)Nc1ccc2c(c1)B(O)OC2`, the IC50 in the experiment with 4T1 [1], with MCF7, in the experiment on MIA PaCa-2 and in the experiment on WiDr [2] was > 100 µM each time. The result in the experiment with WiDr [17] and with 4T1 [18] was inactive.

Values taken from ChEMBL document CHEMBL4622913, “Synthesis and biological evaluation of arylphosphonium-benzoxaborole conjugates as novel anticancer agents” (Bioorg Med Chem Lett, 2020).
